Experimental data taken from US20100184683A1, “ANTIBACTERIAL AND ANTIFUNGAL PEPTIDES” (C3 JIAN, INC., priority 2009, published 2010).
≈ marks a conversion by molar mass, not a printed value. Read-outs that look alike come from different tables or passages of the source. Peptide text beside a SMILES is read from it.

Experiments:
[1] = test system: T. rubrum; type: cell-based, Trichophyton rubrum
How it was run: (§1)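 Minimum inhibitory concentration was determined separately for each organism, using media and growth conditions chosen for that organism.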

[2] = test system: B. subtilis; type: cell-based, Bacillus subtilis
How it was run: as §1

[3] = test system: MRSA; type: cell-based, Methicillin-resistant Staphylococcus aureus
How it was run: as §1

[4] = test system: S. epidermidis; type: cell-based
How it was run: as §1

[5] = test system: C. albicans; type: cell-based, Candida albicans
Procedure: (§2) In certain embodiments the MIC assays are performed as described herein in the Examples. For each organism, the media and growth conditions utilized is detailed in Table 8.
(§3) In certain embodiments the MIC assays are performed as follows: For each organism, the media and growth conditions utilized is detailed in Table 8.

[6] = test system: A. niger; type: cell-based, Aspergillus niger
How it was run: as §1

[7] = test system: E. faecalis; type: cell-based, Enterococcus faecalis
Procedure: as §2, §3

[8] = test system: P. aeruginosa; type: cell-based, Pseudomonas aeruginosa
Procedure: as §2, §3

[9] = test system: P. gingivalis; type: cell-based, Porphyromonas gingivalis
Procedure: as §2, §3

[10] = test system: S. mutans; type: cell-based, Streptococcus mutans
Procedure: as §2, §3

[11] = test system: A. naeslundii; type: cell-based, Actinomyces naeslundii
Procedure: as §2, §3

[12] = test system: F. nucleatum; type: cell-based, Fusobacterium nucleatum
Procedure: as §2, §3

[13] = test system: M. furfur; assay: MIC assay, M. furfur; type: cell-based, Malassezia furfur; conditions: ATCC medium 1072, 37° C., aerobic, inoculum 10^5 CFU/ml, 18-24 h or 48 h
Procedure: as §2, §3

[14] = test system: C. jeikeium; assay: MIC assay, C. jeikeium; type: cell-based, Corynebacterium jeikium; conditions: TSB supplemented with 1% Tween-80, 37° C., aerobic, inoculum 10^6 CFU/ml, 18-24 h or 48 h
Procedure: as §2, §3

| SMILES | MIC [1] | MIC [2] | MIC [3] | MIC [4] | MIC [5] | MIC [6] | MIC [7] | MIC [8] | MIC [9] | MIC [10] | MIC [11] | MIC [12] | MIC ([8]; P. aeruginosa, MH, 37° C., aerobic, inoculum 10^5 CFU/ml, 18-24 h or 48 h) | MIC ([9]; P. gingivalis, Columbia broth, 37° C., anaerobic, inoculum 10^5 CFU/ml, 18-24 h or 48 h) | MIC ([1]; T. rubrum, Potato Dextrose Agar, 25° C., aerobic, inoculum 10^5 CFU/ml, 18-24 h or 48 h) | MIC [13] | MIC [14] | MIC ([3]; MRSA, BHI supplemented with 2% glucose, 37° C., aerobic, inoculum 10^5 CFU/ml, 18-24 h or 48 h) | MIC ([4]; S. epidermidis, BHI supplemented with 0.25% glucose, 37° C., aerobic, inoculum 10^5 CFU/ml, 18-24 h or 48 h) | MIC ([10]; S. mutans, TH supplemented with 1% sucrose, 37° C., anaerobic, inoculum 10^5 CFU/ml, 18-24 h or 48 h) |
| --- | --- | --- | --- | --- | --- | --- | --- | --- | --- | --- | --- | --- | --- | --- | --- | --- | --- | --- | --- | --- |
| CC[C@H](C)[C@H](NC(=O)[C@H](C)NC(=O)[C@H](CO)NC(=O)[C@H](CC(=O)O)NC(=O)[C@H](Cc1ccc(O)cc1)NC(=O)[C@H](C)NC(=O)[C@@H](NC(=O)[C@H](CC(C)C)NC(=O)[C@H](C)NC(=O)[C@H](CC(C)C)NC(=O)[C@H](CO)NC(=O)CNC(=O)[C@H](Cc1ccccc1)NC(=O)[C@H](CCCNC(=N)N)NC(=O)[C@@H](N)CCSC)C(C)C)C(=O)N[C@@H](CCCCN)C(=O)N[C@@H](Cc1c[nH]cn1)C(=O)N[C@@H](CO)C(=O)N[C@@H](Cc1c[nH]c2ccccc12)C(=O)N1CCC[C@H]1C(=O)N[C@@H](CCCNC(=N)N)C(=O)N1CCC[C@H]1C(=O)N[C@@H](CO)C(=O)N[C@@H](CO)C(=O)N[C@H](C(=O)N[C@@H](CCCNC(=N)N)C(=O)N[C@@H](CCCNC(=N)N)C(=O)N[C@@H](CC(C)C)C(=O)N[C@@H](CCCNC(=N)N)C(=O)N[C@@H](CCSC)C(=O)O)C(C)C [PF-672] (H-MRFGSLALVAYDSAIKHSWPRPSSVRRLRM-OH; N-terminus and C-terminus assumed) | 0.78 µM (≈ 2.72 µg/mL) | 0.78 µM (≈ 2.72 µg/mL) | 1.56 µM (≈ 5.44 µg/mL) | 0.39 µM (≈ 1.36 µg/mL) | 1.56 µM (≈ 5.44 µg/mL) | 3 µM (≈ 10.5 µg/mL) | 3.13 µM (≈ 10.9 µg/mL) |  |  |  |  |  |  |  |  |  |  |  |  |  |
| CC[C@H](C)[C@H](NC(=O)[C@H](C)NC(=O)[C@H](CC(N)=O)NC(=O)[C@@H](NC(=O)[C@H](CC(C)C)NC(=O)[C@H](CCCNC(=N)N)NC(=O)[C@H](Cc1ccc(O)cc1)NC(=O)[C@@H](N)CC(N)=O)C(C)C)C(=O)N[C@@H](Cc1ccccc1)C(=O)N[C@@H](CO)C(=O)N[C@@H](CCCCN)C(=O)N[C@H](C(=O)N[C@@H](Cc1ccccc1)C(=O)N[C@@H](CCCCN)C(=O)N[C@@H](CCCCN)C(=O)N[C@@H](CCCCN)C(=O)N[C@@H](Cc1ccccc1)C(=O)N[C@H](C(=O)N[C@@H](CCCCN)C(=O)N[C@@H](Cc1ccccc1)C(=O)O)[C@@H](C)CC)[C@@H](C)CC [PF-C252] (H-NYRLVNAIFSKIFKKKFIKF-OH; N-terminus and C-terminus assumed) | 50 µM (≈ 125 µg/mL) |  | 50 µM (≈ 125 µg/mL) | 25 µM (≈ 62.6 µg/mL) | 25 µM (≈ 62.6 µg/mL) |  |  | 50 µM (≈ 125 µg/mL) | 25 µM (≈ 62.6 µg/mL) | 12.5 µM (≈ 31.3 µg/mL) | 25 µM (≈ 62.6 µg/mL) | 25 µM (≈ 62.6 µg/mL) |  |  |  |  |  |  |  |  |
| CC[C@H](C)[C@H](NC(=O)[C@@H](NC(=O)[C@H](CO)NC(=O)CN)C(C)C)C(=O)N[C@@H](CCCCN)C(=O)N[C@@H](CCCCN)C(=O)N[C@@H](CCCNC(=N)N)C(=O)N[C@@H](CCCNC(=N)N)C(=O)N[C@@H](CCCCN)C(=O)N[C@@H](CCCNC(=N)N)C(=O)N[C@@H](CCSC)C(=O)N[C@@H](CO)C(=O)N[C@@H](CCCCN)C(=O)N[C@@H](CCCCN)C(=O)N[C@@H](CCCCN)C(=O)N[C@@H](Cc1c[nH]cn1)C(=O)N[C@@H](CCCNC(=N)N)C(=O)N[C@@H](CCCCN)C(=O)N[C@@H](CCSC)C(=O)N[C@@H](CC(C)C)C(=O)N[C@@H](CCCNC(=N)N)C(=O)N[C@@H](CCCNC(=N)N)C(=O)N[C@H](C(=O)N[C@@H](CCCNC(=N)N)C(=O)N[C@H](C(=O)N[C@@H](CCC(N)=O)C(=O)N[C@@H](CCCNC(=N)N)C(=O)N[C@@H](CCCNC(=N)N)C(=O)N[C@@H](CCCCN)C(=O)N[C@@H](CC(C)C)C(=O)NCC(=O)N[C@@H](CCCCN)C(=O)O)C(C)C)[C@@H](C)O [PF-S028] |  | 12.5 µM (≈ 50.4 µg/mL) |  |  |  |  |  |  |  |  |  |  | 50 µM (≈ 202 µg/mL) | 25 µM (≈ 101 µg/mL) | 50 µM (≈ 202 µg/mL) | 2.5 µM (≈ 10.1 µg/mL) | 6.25 µM (≈ 25.2 µg/mL) | 50 µM (≈ 202 µg/mL) | 25 µM (≈ 101 µg/mL) | 50 µM (≈ 202 µg/mL) |
